Laboratory results reported in PubChem BioAssay (NCI).
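How tested: cells in 96-well plates exposed to compound for 48 hours at five concentrations. TGI: total growth inhibition.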

system: OVCAR-8 ovarian; test: inhibition of tumour cell growth, NCI panel, 48 h

`O=C1c2ccccc2S[C@@H](O)[C@@H]2CCCN12` was tested. Which TGI did it give?
The TGI was over 100 µM.

With `CC1=C2C3=C(C)C(=O)C(C)(C)CC[C@@]3(C)[C@]2(C)CCC(C)(C)C1=O` as the molecule, how does the TGI read?
Its TGI is over 100 µM.

With `Cc1cc(=O)[nH]c(NNC(C#N)c2ccc(O)cc2)n1` (stereo not drawn) as the molecule, how does the TGI read?
The TGI was over 100 µM.

`O=C1NNC(=O)C2C3c4ccccc4C(c4ccccc43)C12` (stereo not drawn) was tested. Which TGI did it give?
The TGI was over 100 µM.

Which TGI does the source give for `O=C(CSc1nnc(Cc2ccccc2)o1)Nc1cccc([N+](=O)[O-])c1` here?
The TGI was over 100 µM.

`O=C(CC(=O)n1nc(-c2ccccc2)c(N=Nc2ccc(Cl)cc2)c1-c1ccccc1)Nc1cccc(Cl)c1` was tested. Which TGI did it give?
The TGI was over 100 µM.

How did the TGI turn out when `COc1cccc(C2c3cc4c(cc3OC(N3CCCC3)C2C)OCO4)c1` (stereo not drawn) was run?
The TGI was over 100 µM.

`O=P(c1ccccc1)(c1ccccc1)C(NCc1ccccc1)c1ccc(F)cc1` (stereo not drawn) was tested. Which TGI did it give?
The TGI was 40.6 µM.

`CCOC(=O)C(Cl)(NC(=O)c1ccc(F)cc1)C(F)(F)F` (stereo not drawn) was tested. Which TGI did it give?
The TGI was over 100 µM.

With `CC1CN=C(Nc2ccc(S(N)(=O)=O)cc2)S1` (stereo not drawn) as the molecule, how does the TGI read?
Its TGI is over 100 µM.

Which TGI does the source give for `CC(=O)NCc1nc(C#N)c(N)o1` here?
Its TGI is over 100 µM.

How did the TGI turn out when `COc1cc2c(c(OC)c1OC)-c1ccc(SC)c(=O)cc1C(CC(=O)Oc1ccc([N+](=O)[O-])cc1)C2` (stereo not drawn) was run?
The TGI was 5.08 µM.

With `CSc1nc(Cl)c2c(n1)Sc1nc3cc4c(cc3n1C2O)OCO4` (stereo not drawn) as the molecule, how does the TGI read?
The TGI was 3.85 µM.

With `CC(=O)NC(CCCN)C(=O)NCc1ccccc1` (stereo not drawn) as the molecule, how does the TGI read?
Its TGI is over 100 µM.

With `Cc1[nH]c(=O)[nH]c(=S)c1C(=O)NC(C)(CO)CO` as the molecule, how does the TGI read?
The TGI was over 100 µM.

How did the TGI turn out when `Cc1nnc([C@@]2(C)CC[C@H]3[C@@H](CC=C4C[C@@H](O)CC[C@@]43C)[C@@H]2CC#N)o1` was run?
The TGI was over 100 µM.

With `COc1ccc(-c2c(C(C)=O)c(-c3ccccc3)n(C3OC(COC(C)=O)C(OC(C)=O)C(OC(C)=O)C3OC(C)=O)c(=S)c2C#N)cc1` (stereo not drawn) as the molecule, how does the TGI read?
Its TGI is over 100 µM.

With `O=C1SCC(O)=C1/C=N/Nc1nc2ccccc2o1` as the molecule, how does the TGI read?
The TGI was 46.6 µM.

Which TGI does the source give for `CCCCCCCCCCCCCCCCCc1cccc(OCOCCOC)c1CO` here?
Its TGI is over 100 µM.

For `CCOC(=O)Cn1sc2ncc([N+](=O)[O-])cc2c1=O`, which TGI is on record?
The TGI was 30.3 µM.

For `O=C1CCC(c2ccccc2)C(O)(C(=O)O)C1` (stereo not drawn), which TGI is on record?
Its TGI is over 100 µM.

`N#CCCN(CCC#N)c1ccc(C(=O)NN)cc1` was tested. Which TGI did it give?
Its TGI is over 100 µM.

For `CN1CCC(OC(=O)Oc2ccccc2)(c2ccccc2)CC1`, which TGI is on record?
Its TGI is 33 µM.

Which TGI does the source give for `CCN(CC)Cc1cc(Nc2ccnc3ccc4c(nnn4C)c23)ccc1O` here?
The TGI was 41.9 µM.

With `CC1=CC(=O)NP(=O)(Oc2ccc(C)cc2)N1` (stereo not drawn) as the molecule, how does the TGI read?
Its TGI is over 100 µM.

Which TGI does the source give for `CC(=O)OC1CC2OC(Cc3ccccc32)O1` (stereo not drawn) here?
The TGI was over 100 µM.

Which TGI does the source give for `CCOC(=O)CC(NC(=O)c1nc[nH]c1[N+](=O)[O-])C(=O)OCC` (stereo not drawn) here?
Its TGI is over 100 µM.

How did the TGI turn out when `COC(=O)c1ccc2c(c1)CC1(C2)Cc2cc3c(cc2C1=O)CCC3` (stereo not drawn) was run?
The TGI was over 100 µM.

For `S=C1Cc2c([nH]c3ccccc23)-c2ccccc2N1`, which TGI is on record?
The TGI was over 100 µM.

For `N#[O+].O=S(=O)([O-])[O-].[NH2-].[NH2-].[NH2-].[NH2-].[NH2-].[Ru+5]`, which TGI is on record?
Its TGI is over 100 µM.

system: UACC-62 melanoma; test: inhibition of tumour cell growth, NCI panel, 48 h

`O=C1c2ccccc2S[C@@H](O)[C@@H]2CCCN12` was tested. Which TGI did it give?
Its TGI is over 100 µM.

Which TGI does the source give for `CC1=C2C3=C(C)C(=O)C(C)(C)CC[C@@]3(C)[C@]2(C)CCC(C)(C)C1=O` here?
The TGI was over 100 µM.

`Cc1cc(=O)[nH]c(NNC(C#N)c2ccc(O)cc2)n1` (stereo not drawn) was tested. Which TGI did it give?
The TGI was over 100 µM.

`O=C1NNC(=O)C2C3c4ccccc4C(c4ccccc43)C12` (stereo not drawn) was tested. Which TGI did it give?
Its TGI is over 100 µM.

For `O=C(CSc1nnc(Cc2ccccc2)o1)Nc1cccc([N+](=O)[O-])c1`, which TGI is on record?
Its TGI is over 100 µM.

How did the TGI turn out when `O=C(CC(=O)n1nc(-c2ccccc2)c(N=Nc2ccc(Cl)cc2)c1-c1ccccc1)Nc1cccc(Cl)c1` was run?
The TGI was over 100 µM.

Which TGI does the source give for `COc1cccc(C2c3cc4c(cc3OC(N3CCCC3)C2C)OCO4)c1` (stereo not drawn) here?
Its TGI is 34.5 µM.

With `CN(C)/N=C(\CCN1CCCC1)CC(c1ccccc1)c1c(O)c2ccccc2oc1=O` (stereo not drawn) as the molecule, how does the TGI read?
Its TGI is over 100 µM.

Which TGI does the source give for `O=P(c1ccccc1)(c1ccccc1)C(NCc1ccccc1)c1ccc(F)cc1` (stereo not drawn) here?
Its TGI is 27.3 µM.

`CC(=O)NCc1nc(C#N)c(N)o1` was tested. Which TGI did it give?
Its TGI is over 100 µM.

`COc1cc2c(c(OC)c1OC)-c1ccc(SC)c(=O)cc1C(CC(=O)Oc1ccc([N+](=O)[O-])cc1)C2` (stereo not drawn) was tested. Which TGI did it give?
The TGI was 11.4 µM.

With `CSc1nc(Cl)c2c(n1)Sc1nc3cc4c(cc3n1C2O)OCO4` (stereo not drawn) as the molecule, how does the TGI read?
The TGI was 14.2 µM.

For `CC(=O)NC(CCCN)C(=O)NCc1ccccc1` (stereo not drawn), which TGI is on record?
The TGI was over 100 µM.

How did the TGI turn out when `Cc1[nH]c(=O)[nH]c(=S)c1C(=O)NC(C)(CO)CO` was run?
The TGI was over 100 µM.

`Cc1nnc([C@@]2(C)CC[C@H]3[C@@H](CC=C4C[C@@H](O)CC[C@@]43C)[C@@H]2CC#N)o1` was tested. Which TGI did it give?
The TGI was over 100 µM.

`COc1ccc(-c2c(C(C)=O)c(-c3ccccc3)n(C3OC(COC(C)=O)C(OC(C)=O)C(OC(C)=O)C3OC(C)=O)c(=S)c2C#N)cc1` (stereo not drawn) was tested. Which TGI did it give?
Its TGI is over 100 µM.

With `O=C1SCC(O)=C1/C=N/Nc1nc2ccccc2o1` as the molecule, how does the TGI read?
Its TGI is 46.1 µM.

Which TGI does the source give for `CCCCCCCCCCCCCCCCCc1cccc(OCOCCOC)c1CO` here?
The TGI was over 100 µM.

How did the TGI turn out when `CCOC(=O)Cn1sc2ncc([N+](=O)[O-])cc2c1=O` was run?
Its TGI is 48.4 µM.

`O=C1CCC(c2ccccc2)C(O)(C(=O)O)C1` (stereo not drawn) was tested. Which TGI did it give?
The TGI was over 100 µM.

How did the TGI turn out when `N#CCCN(CCC#N)c1ccc(C(=O)NN)cc1` was run?
Its TGI is over 100 µM.

`CN1CCC(OC(=O)Oc2ccccc2)(c2ccccc2)CC1` was tested. Which TGI did it give?
Its TGI is 37.6 µM.

`CCN(CC)Cc1cc(Nc2ccnc3ccc4c(nnn4C)c23)ccc1O` was tested. Which TGI did it give?
The TGI was 30.9 µM.

With `CC1=CC(=O)NP(=O)(Oc2ccc(C)cc2)N1` (stereo not drawn) as the molecule, how does the TGI read?
Its TGI is over 100 µM.

`CC(=O)OC1CC2OC(Cc3ccccc32)O1` (stereo not drawn) was tested. Which TGI did it give?
The TGI was over 100 µM.

`CCOC(=O)CC(NC(=O)c1nc[nH]c1[N+](=O)[O-])C(=O)OCC` (stereo not drawn) was tested. Which TGI did it give?
The TGI was over 100 µM.

With `S=C1Cc2c([nH]c3ccccc23)-c2ccccc2N1` as the molecule, how does the TGI read?
Its TGI is over 100 µM.

For `N#[O+].O=S(=O)([O-])[O-].[NH2-].[NH2-].[NH2-].[NH2-].[NH2-].[Ru+5]`, which TGI is on record?
The TGI was over 100 µM.
